Where two headings read alike, the source gives them in different places.
Target: T1, acetylcholine muscarinic M1 receptor (Homo sapiens, UniProt P11229)
T1 construct: expressed in transfected cells; host or cells: CHOnfat (CHO cells, NFAT reporter background) expressing hM1
T1 sequence (P11229 1-460): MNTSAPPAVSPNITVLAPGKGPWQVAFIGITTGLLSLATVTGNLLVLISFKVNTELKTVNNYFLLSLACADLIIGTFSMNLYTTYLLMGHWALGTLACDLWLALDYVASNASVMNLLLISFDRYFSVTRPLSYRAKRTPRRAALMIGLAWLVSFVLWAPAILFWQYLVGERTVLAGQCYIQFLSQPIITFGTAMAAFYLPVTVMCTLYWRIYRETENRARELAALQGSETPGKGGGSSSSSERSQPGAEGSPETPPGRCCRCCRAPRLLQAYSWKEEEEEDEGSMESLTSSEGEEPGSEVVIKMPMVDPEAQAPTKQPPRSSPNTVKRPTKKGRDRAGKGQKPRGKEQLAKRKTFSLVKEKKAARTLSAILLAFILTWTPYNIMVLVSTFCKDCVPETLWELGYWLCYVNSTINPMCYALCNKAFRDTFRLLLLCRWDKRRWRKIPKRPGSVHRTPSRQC
Assay: muscarinic FLIPR assay: intracellular calcium in CHOnfat/hM1 cells, potentiation of EC20 acetylcholine
Assay type: cell-based
Description: The assay studies the effect of one or several concentrations of test compounds on basal or acetylcholine-stimulated Ca^2+ levels using FLIPR.
Compounds are prepared and subjected to a preincubation period of 4 min. Thereafter, a single EC20 concentration of acetylcholine is added to each well (3 nM final). The intracellular Ca^2+ level of each sample is measured and compared to an acetylcholine control to determine any modulatory activity.
Cells: CHOnfat/hM1, hM2, hM3 or hM4 cells are plated 24 hr before the assay at a density of 18,000 cells/well (100 μL) in a 384 well plate. CHOnfat/hM1 and CHOnfat/hM3 Growth Medium: 90% DMEM (Hi Glucose); 10% HI FBS; 2 mM L-glutamine; 0.1 mM NEAA; Pen-Strep; and 1 mg/ml Geneticin, are added. For M2Gqi5CHOnfat and M4Gqi5CHOnfat cells, an additional 600 ug/ml hygromycin is added.
Equipment: 384 well plate, 120 μL addition plate; 96-well Whatman 2 ml Uniplate Incubator, 37° C., 5% CO2; Skatron EMBLA-384 Plate Washer; Multimek Pipetting System; Genesis Freedom 200 System; Mosquito System; Temo Nanoliter Pipetting System; and FLIPR^384 Fluorometric Imaging Plate Reader System are used.
Buffers. Assay Buffer: Hanks Balanced Salt Solution, with 20 mM Hepes, 2.5 mM Probenecid (Sigma P-8761) first dissolved in 1N NaOH, 1% Bovine Serum Albumin (Sigma A-9647). Dye Loading Buffer: Assay Buffer plus 1% Fetal Bovine Serum and Fluo-4AM/Pluronic Acid Mixture. 2 mM Fluo-4AM ester stock in DMSO (Molecular Probes F-14202) Concentration of 2 uM in buffer for a final concentration of 1 μM in Assay. 20% Pluronic Acid Solution stock, with concentration of 0.04% in Buffer, 0.02% in Assay.
65 μL of 2 mM Fluo-4AM are mixed with 130 μL of 20% Pluronic Acid. The resulting solution and 650 μL FBS is added to the assay buffer for a total volume of 65 mL. Positive Controls: 4-Br-A23187: 10 mM in DMSO; final concentration 10 μM. Acetylcholine: 10 mM in water, working stock at both 20 uM and 30 uM in assay buffer, final concentration of 10 μM. This is used to check the maximum stimulation of the CHOK1/hM1 cells. 20 uM (2×) acetylcholine is added in the preincubation part of the assay, and the 30 uM (3×) stock is added in the second part. (EC20)Acetylcholine: 10 mM in water, working stock of 9 nM (3×), and final concentration in assay is 3 nM. This is used after the preincubation with test compounds. Addition of the EC20) Acetylcholine to each well with a test compound will ascertain any modulator activity. 24 wells contain 3 nM Acetylcholine alone as a control.
Determining Activity of Putative Compounds:
Screening Plate Compounds are titrated in 96-well plates (columns 2-11), 100% DMSO, started at a concentration of 15 mM (150× stock concentration), and 3-fold serial dilutions using Genesis Freedom200 System. Four 96-well plates are combined into a 384-well plate using Mosquito Nanoliter Pipetting System by transferring 1 ul of serial diluted compounds to each well, and 1 mM acetylcholine (100× stock concentration) were added as a control. Using Temo, 49 μl assay buffer is added to each well of the 384-well plate right before assay.
In a 96-well Whatman 2 ml Uniplate, 9 nM Acetylcholine (3×) is pipetted into wells corresponding to the screening compounds, and into control wells. The 30 uM acetylcholine control (3×) is added into control wells, and the 3× agonist plate is transferred into a 384 well plate.
Cells are washed three times with 100 μL of buffer, leaving 30 μL of buffer in each well. Using Multimek, 30 μL of Dye Loading Buffer is added into each well and incubated at […], 5% CO2 for up to one hr.
After 60 min, the cells are washed three times with 100 μL of buffer, leaving 30 μL of buffer in each well. The cell plate, screening plate, and agonist addition plates are placed on the platform in the FLIPR and the door closed. A signal test to check background fluorescence and basal fluorescence signal is performed. Laser intensity is adjusted if necessary. […]

[1] = CHOnfat/hM1 cells, FLIPR, 4 min preincubation, then EC20 acetylcholine (3 nM final), read-out: IP Value (inflection point)

Structure (SMILES)	EC50	EC50 [1]
N#CC1(c2ccccc2)CCN(Cc2cc(C(=O)O)c(=O)n3ccccc23)CC1 [Example 3]	152 nM	–
Cc1cccc(C2(C#N)CCN(Cc3cc(C(=O)O)c(=O)n4ccccc34)CC2)c1 [Example 8]	87 nM	–
COc1ccccc1C1(C#N)CCN(Cc2cc(C(=O)O)c(=O)n3ccccc23)CC1 [Example 10]	164 nM	–
N#CC1(c2cccc(Cl)n2)CCN(Cc2cc(C(=O)O)c(=O)n3ccccc23)CC1 [Example 28]	133 nM	–
N#CC1(c2cnc3ccccc3n2)CCN(Cc2cc(C(=O)O)c(=O)n3ccccc23)CC1 [Example 42]	–	1240 nM
N#CC1(c2nc3ccccc3s2)CCN(Cc2cc(C(=O)O)c(=O)n3ccccc23)CC1 [Example 45]	91 nM	–
N#CC1(c2cccc(F)c2)CCN(Cc2cc(C(=O)O)c(=O)n3ccccc23)CC1 [Example 46, 1-{[4-cyano-4-(3-fluorophenyl)piperidin-1-yl]methyl}-4-oxo-4H-quinolizine-3-carboxylic acid]	562 nM	–
N#CC1(c2cccnc2)CCN(Cc2cc(C(=O)O)c(=O)n3ccccc23)CC1 [Example 47, 1-[(4-cyano-4-pyridin-3-ylpiperidin-1-yl)methyl]-4-oxo-4H-quinolizine-3-carboxylic acid]	363 nM	–
N#CC1(c2ncccc2Br)CCN(Cc2cc(C(=O)O)c(=O)n3ccccc23)CC1 [Example 48, 1-{[4-(3-bromopyridin-2-yl)-4-cyanopiperidin-1-yl]methyl}-4-oxo-4H-quinolizine-3-carboxylic acid]	–	3400 nM
C=Cc1cccnc1C1(C#N)CCN(Cc2cc(C(=O)O)c(=O)n3ccccc23)CC1 [Example 49, 1-{[4-cyano-4-(3-vinylpyridin-2-yl)piperidin-1-yl]methyl}-4-oxo-4H-quinolizine-3-carboxylic acid]	–	6300 nM
C=Cc1ccc(C2(C#N)CCN(Cc3cc(C(=O)O)c(=O)n4ccccc34)CC2)nc1 [Example 50, 1-{[4-cyano-4-(5-vinylpyridin-2-yl)piperidine-1-yl]methyl}-4-oxo-4H-quinolizine-3-carboxylic acid]	–	403 nM

Reference: US8258135B2, “Quinolizidinone M1 receptor positive allosteric modulators” (Merck Sharp & Dohme Corp., priority 2007, dated 2012)
